Measured values as given in US12421252B2, “Spiro (isobenzofuranazetidine) compounds for the treatment of autoimmune disease” (Hoffmann-La Roche Inc., priority 2020, dated 2025).

target: T1, human TLR7 (Homo sapiens, UniProt Q9NYK1); experiment: HEK293-Blue-hTLR-7 cells assay; type: cell-based; conditions: HEK293-Blue-hTLR7 cells, R848 stimulation, 20 hrs, SEAP reporter; read-out: HEK/hTLR7 IC50
T1 sequence (Q9NYK1 27-1049): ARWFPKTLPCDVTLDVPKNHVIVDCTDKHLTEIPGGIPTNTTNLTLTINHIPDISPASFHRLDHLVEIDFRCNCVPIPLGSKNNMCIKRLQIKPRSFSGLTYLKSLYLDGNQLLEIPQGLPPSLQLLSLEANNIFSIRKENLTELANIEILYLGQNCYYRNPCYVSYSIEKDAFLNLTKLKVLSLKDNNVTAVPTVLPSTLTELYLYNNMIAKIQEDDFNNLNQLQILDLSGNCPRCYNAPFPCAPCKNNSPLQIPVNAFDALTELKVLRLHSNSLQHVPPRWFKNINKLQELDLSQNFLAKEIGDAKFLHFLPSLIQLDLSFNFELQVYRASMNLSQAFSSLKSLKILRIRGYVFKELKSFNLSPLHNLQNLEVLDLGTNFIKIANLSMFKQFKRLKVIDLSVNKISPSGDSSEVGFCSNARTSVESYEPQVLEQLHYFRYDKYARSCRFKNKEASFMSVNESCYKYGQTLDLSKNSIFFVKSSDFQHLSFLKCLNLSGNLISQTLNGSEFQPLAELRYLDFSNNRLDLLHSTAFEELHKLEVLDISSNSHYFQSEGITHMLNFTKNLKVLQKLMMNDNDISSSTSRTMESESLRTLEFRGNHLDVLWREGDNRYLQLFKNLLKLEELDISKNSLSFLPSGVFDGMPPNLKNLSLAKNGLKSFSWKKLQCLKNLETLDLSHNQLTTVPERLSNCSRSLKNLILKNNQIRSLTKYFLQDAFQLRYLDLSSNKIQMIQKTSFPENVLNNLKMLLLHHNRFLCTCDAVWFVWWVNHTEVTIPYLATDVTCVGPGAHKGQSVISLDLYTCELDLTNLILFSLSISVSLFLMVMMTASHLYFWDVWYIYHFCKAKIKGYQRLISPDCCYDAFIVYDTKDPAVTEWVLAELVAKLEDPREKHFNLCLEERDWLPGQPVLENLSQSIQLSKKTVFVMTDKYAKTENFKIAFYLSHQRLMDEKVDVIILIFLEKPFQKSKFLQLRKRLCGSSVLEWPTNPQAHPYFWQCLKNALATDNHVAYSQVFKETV
Source text: HEK293-Blue-hTLR-7 cells assay:
A stable HEK293-Blue-hTLR-7 cell line was purchased from InvivoGen (Cat. #: hkb-htlr7, San Diego, California, USA). These cells were originally designed for studying the stimulation of human TLR7 by monitoring the activation of NF-κB. A SEAP (secreted embryonic alkaline phosphatase) reporter gene was placed under the control of the IFN-β minimal promoter fused to five NF-κB and AP-1-binding sites. The SEAP was induced by activating NF-κB and AP-1 via stimulating HEK-Blue hTLR7 cells with TLR7 ligands. Therefore the reporter expression was declined by TLR7 antagonist under the stimulation of a ligand, such as R848 (Resiquimod), for incubation of 20 hrs. The cell culture supernatant SEAP reporter activity was determined using QUANTI-Blue™ kit (Cat. #: rep-qb1, Invivogen, San Diego, Ca, USA) at a wavelength of 640 nm, a detection medium that turns purple or blue in the presence of alkaline phosphatase.
HEK293-Blue-hTLR7 cells were incubated at a density of 250,000˜450,000 cells/mL in a volume of 170 μL in a 96-well plate in Dulbecco's Modified Eagle's medium (DMEM) containing 4.5 g/L glucose, 50 U/mL penicillin, […], […], 2 mM L-glutamine, 10% (v/v) heat-inactivated fetal bovine serum with addition of 20 μL test compound in a serial dilution in the presence of final DMSO at 1% and 10 μL of 20 uM R848 in above DMEM, perform incubation under 37° C. in a CO2 incubator for 20 hrs. Then 20 μL of the supernatant from each well was incubated with 180 μL Quanti-blue substrate solution at 37° C. for 2 hrs and the absorbance was read at 620˜655 nm using a spectrophotometer. The signaling pathway that TLR7 activation leads to downstream NF-κB activation has been widely accepted, and therefore similar reporter assay was modified for evaluating TLR7 antagonist.

In order of rising IC50:
1. [2H]c1ccc2c(N3C[C@H](CN4CC5(C4)OCc4cc(N6CC(N)C6)ncc45)O[C@H](C)C3)ccc(C#N)c2n1 [Example 32, 5-[(2S,6R)-2-[[6-(3-aminoazetidin-1-yl)spiro[1H-furo[3,4-c]pyridine-3,3′-azetidine]-1′-yl]methyl]-6-methyl-morpholin-4-yl]-2-deuterio-quinoline-8-carbonitrile]  0.004 µM
2. C[C@@H]1CN(c2ccc(C#N)n3ncc(F)c23)C[C@H](CN2CC3(C2)OCc2cc(N4CC(N)C4)ccc23)O1 [Example 9, 4-[(2S,6R)-2-[[6-(3-aminoazetidin-1-yl)spiro[1H-isobenzofuran-3,3′-azetidine]-1′-yl]methyl]-6-methyl-morpholin-4-yl]-3-fluoro-pyrazolo[1,5-a]pyridine-7-carbonitrile]  0.005 µM
3. [2H]c1ccc2c(N3C[C@H](CN4CC5(C4)OCc4cc(N6CC(C)(N)C6)cnc45)O[C@H](C)C3)ccc(C#N)c2n1 [Example 21, 5-[(2S,6R)-2-[[3-(3-amino-3-methyl-azetidin-1-yl)spiro[5H-furo[3,4-b]pyridine-7,3′-azetidine]-1′-yl]methyl]-6-methyl-morpholin-4-yl]-2-deuterio-quinoline-8-carbonitrile]  0.007 µM
4. [2H]c1ccc2c(N3C[C@H](CN4CC5(C4)OCc4cc(N6CCNCC6)ccc45)O[C@H](C)C3)ccc(C#N)c2n1 [Example 18, 2-deuterio-5-[(2R,6S)-2-methyl-6-[(6-piperazin-1-ylspiro[1H-isobenzofuran-3,3′-azetidine]-1′-yl)methyl]morpholin-4-yl]quinoline-8-carbonitrile]  0.007 µM
5. C[C@@H]1CN(c2ccc(C#N)n3ncc(F)c23)C[C@H](CN2CC3(C2)OCc2cc(N4CCNCC4)ccc23)O1 [Example 6, 3-fluoro-4-[(2R,6S)-2-methyl-6-[(6-piperazin-1-ylspiro[1H-isobenzofuran-3,3′-azetidine]-1′-yl)methyl]morpholin-4-yl]pyrazolo[1,5-a]pyridine-7-carbonitrile]  0.008 µM
6. C[C@@H]1CN(c2ccc(C#N)n3ncc(F)c23)C[C@H](CN2CC3(C2)OCc2cc(N4C[C@H](N)[C@@H](O)C4)ccc23)O1 [Example 10, 4-[(2S,6R)-2-[[6-[(3S,4S)-3-amino-4-hydroxy-pyrrolidin-1-yl]spiro[1H-isobenzofuran-3,3′-azetidine]-1′-yl]methyl]-6-methyl-morpholin-4-yl]-3-fluoro-pyrazolo[1,5-a]pyridine-7-carbonitrile]  0.008 µM
7. [2H]c1ccc2c(N3C[C@H](CN4CC5(C4)OCc4cc(N6CC(N)C6)cnc45)O[C@H](C)C3)ccc(C#N)c2n1 [Example 20, 5-[(2S,6R)-2-[[3-(3-aminoazetidin-1-yl)spiro[5H-furo[3,4-b]pyridine-7,3′-azetidine]-1′-yl]methyl]-6-methyl-morpholin-4-yl]-2-deuterio-quinoline-8-carbonitrile]  0.009 µM
8. C[C@@H]1CN(c2ccc(C#N)n3ncc(F)c23)C[C@H](CN2CC3(C2)OCc2cc(N4CC5(CN(C)C5)C4)cnc23)O1 [Example 22, 3-fluoro-4-[(2R,6S)-2-methyl-6-[[3-(6-methyl-2,6-diazaspiro[3.3]heptan-2-yl)spiro[5H-furo[3,4-b]pyridine-7,3′-azetidine]-1′-yl]methyl]morpholin-4-yl]pyrazolo[1,5-a]pyridine-7-carbonitrile]  0.009 µM
9. C[C@@H]1CN(c2cc(=O)n(C)c3ncccc23)C[C@H](CN2CC3(C2)OCc2cc(N4CC(N)C4)ccc23)O1 [Example 13, 4-[(2S,6R)-2-[[6-(3-aminoazetidin-1-yl)spiro[1H-isobenzofuran-3,3′-azetidine]-1′-yl]methyl]-6-methyl-morpholin-4-yl]-1-methyl-1,8-naphthyridin-2-one]  0.01 µM
10. C[C@@H]1CN(c2ccc(C#N)n3ncc(F)c23)C[C@H](CN2CC3(C2)OCc2cc(N4CC5(CN(C)C5)C4)ccc23)O1 [Example 2, 3-fluoro-4-[(2R,6S)-2-methyl-6-[[6-(6-methyl-2,6-diazaspiro[3.3]heptan-2-yl)spiro[1H-isobenzofuran-3,3′-azetidine]-1′-yl]methyl]morpholin-4-yl]pyrazolo[1,5-a]pyridine-7-carbonitrile]  0.01 µM
11. C[C@@H]1CN(c2ccc(C#N)n3ncc(F)c23)C[C@H](CN2CC3(C2)OCc2cc(N4CC5(CNC5)C4)ccc23)O1 [Example 12, 4-[(2S,6R)-2-[[6-(2,6-diazaspiro[3.3]heptan-2-yl)spiro[1H-isobenzofuran-3,3′-azetidine]-1′-yl]methyl]-6-methyl-morpholin-4-yl]-3-fluoro-pyrazolo[1,5-a]pyridine-7-carbonitrile]  0.01 µM
12. C[C@@H]1CN(c2ccc(C#N)n3nccc23)C[C@H](CN2CC3(C2)OCc2cc(N4CC5(CNCCO5)C4)ccc23)O1 [Example 7, 4-[(2R,6S)-2-methyl-6-[[6-(5-oxa-2,8-diazaspiro[3.5]nonan-2-yl)spiro[1H-isobenzofuran-3,3′-azetidine]-1′-yl]methyl]morpholin-4-yl]pyrazolo[1,5-a]pyridine-7-carbonitrile]  0.015 µM
13. C[C@@H]1CN(c2ccc(C#N)n3ncc(F)c23)C[C@H](CN2CC3(C2)OCc2cc(N4CC(C)(N)C4)ncc23)O1 [Example 24, 4-[(2S,6R)-2-[[6-(3-amino-3-methyl-azetidin-1-yl)spiro[1H-furo[3,4-c]pyridine-3,3′-azetidine]-1′-yl]methyl]-6-methyl-morpholin-4-yl]-3-fluoro-pyrazolo[1,5-a]pyridine-7-carbonitrile]  0.016 µM
14. C[C@@H]1CN(c2ccc(C#N)n3ncc(F)c23)C[C@H](CN2CC3(C2)OCc2cc(N4CC5(CNCCO5)C4)ccc23)O1 [Example 4, 3-fluoro-4-[(2R,6S)-2-methyl-6-[[6-(5-oxa-2,8-diazaspiro[3.5]nonan-2-yl)spiro[1H-isobenzofuran-3,3′-azetidine]-1′-yl]methyl]morpholin-4-yl]pyrazolo[1,5-a]pyridine-7-carbonitrile]  0.016 µM
15. C[C@@H]1CN(c2ccc(C#N)n3ncc(F)c23)C[C@H](CN2CC3(C2)OCc2cc(N4CC[C@](C)(N)C4)ccc23)O1 [Example 5, 4-[(2S,6R)-2-[[6-[(3S)-3-amino-3-methyl-pyrrolidin-1-yl]spiro[1H-isobenzofuran-3,3′-azetidine]-1′-yl]methyl]-6-methyl-morpholin-4-yl]-3-fluoro-pyrazolo[1,5-a]pyridine-7-carbonitrile]  0.019 µM
16. C[C@@H]1CN(c2ccc(C#N)n3nccc23)C[C@H](CN2CC3(C2)OCc2cc(N4CC(N)C4)ccc23)O1 [Example 19, 4-[(2S,6R)-2-[[6-(3-aminoazetidin-1-yl)spiro[1H-isobenzofuran-3,3′-azetidine]-1′-yl]methyl]-6-methyl-morpholin-4-yl]pyrazolo[1,5-a]pyridine-7-carbonitrile]  0.019 µM
17. C[C@@H]1CN(c2ccc(C#N)n3nccc23)C[C@H](CN2CC3(C2)OCc2cc(N4CC(C)(N)C4)cnc23)O1 [Example 26, 4-[(2S,6R)-2-[[3-(3-amino-3-methyl-azetidin-1-yl)spiro[5H-furo[3,4-b]pyridine-7,3′-azetidine]-1′-yl]methyl]-6-methyl-morpholin-4-yl]pyrazolo[1,5-a]pyridine-7-carbonitrile]  0.024 µM
